Measurements published in PubChem BioAssay AID248 (DTP/NCI, 2004).
Values joined by “and” are separate entries in the source; they are usually repeats but may differ in a detail not shown here. Equal values may be shown once. Toxic doses and inconclusive results are not listed.

Tested on: L1210 leukemia ip in BDF1 mice, survival T/C
Assay: NCI In Vivo Anticancer Drug Screen. Data for tumor model L1210 Leukemia (intraperitoneal) in B6D2F1 (BDF1) mice
Details: endpoint: mean survival time, higher = longer survival
In short: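 Each compound was tested against a transplantable tumor grown in mice. The endpoint was survival, with treated animals benchmarked against vehicle controls as a simple ratio.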

[1] = dose: 100.0 mg/kg/injection, schedule: Q04DX003 (ip), vehicle: saline with Tween-80
[2] = dose: 50.0 mg/kg/injection, schedule: Q01DX009 (ip), vehicle: saline with Tween-80
[3] = dose: 200.0 mg/kg/injection, schedule: Q04DX003 (ip), vehicle: saline with Tween-80
[4] = dose: 100.0 mg/kg/injection, schedule: Q01DX009 (ip), vehicle: saline with Tween-80
[5] = dose: 200.0 mg/kg/injection, schedule: Q01DX009 (ip), vehicle: saline with Tween-80
[6] = dose: 100.0 mg/kg/injection, schedule: Q04DX003 (ip), vehicle: Klucel (hydroxypropylcellulose) (HPC)
[7] = dose: 200.0 mg/kg/injection, schedule: Q04DX003 (ip), vehicle: Klucel (hydroxypropylcellulose) (HPC)
[8] = dose: 100.0 mg/kg/injection, schedule: Q01DX009 (ip), vehicle: other
[9] = dose: 400.0 mg/kg/injection, schedule: Q04DX003 (ip), vehicle: saline with Tween-80
[10] = dose: 50.0 mg/kg/injection, schedule: Q01DX009 (ip), vehicle: Klucel (hydroxypropylcellulose) (HPC)
[11] = dose: 100.0 mg/kg/injection, schedule: Q01DX009 (ip), vehicle: Klucel (hydroxypropylcellulose) (HPC)
[12] = dose: 100.0 mg/kg/injection, schedule: Q01DX001 (ip), vehicle: saline
[13] = dose: 200.0 mg/kg/injection, schedule: Q01DX001 (ip), vehicle: saline
[14] = dose: 400.0 mg/kg/injection, schedule: Q01DX001 (ip), vehicle: saline

Which results are given for `O=NN(CCBr)C(=O)NCCBr`?
T/C (dose: 3.0 mg/kg/injection, schedule: Q01DX Z (ip), vehicle: carboxymethylcellulose (CMC)): 110 % of control; T/C (dose: 6.0 mg/kg/injection, schedule: Q01DX Z (ip), vehicle: carboxymethylcellulose (CMC)): 107 % of control; T/C (dose: 6.25 mg/kg/injection, schedule: Q01DX001 (ip), vehicle: carboxymethylcellulose (CMC)): 104 % of control; T/C (dose: 12.5 mg/kg/injection, schedule: Q01DX001 (ip), vehicle: carboxymethylcellulose (CMC)): 103 % of control; T/C (dose: 25.0 mg/kg/injection, schedule: Q01DX001 (ip), vehicle: carboxymethylcellulose (CMC)): 109 % of control; T/C (dose: 50.0 mg/kg/injection, schedule: Q01DX001 (ip), vehicle: carboxymethylcellulose (CMC)): 114 % of control; T/C (dose: 50.0 mg/kg/injection, schedule: Q01DX Z (ip), vehicle: carboxymethylcellulose (CMC)): 172 % of control; T/C (dose: 100.0 mg/kg/injection, schedule: Q01DX Z (ip), vehicle: carboxymethylcellulose (CMC)): 156 % of control; T/C (dose: 200.0 mg/kg/injection, schedule: Q01DX001 (ip), vehicle: carboxymethylcellulose (CMC)): 178 % of control; T/C (dose: 300.0 mg/kg/injection, schedule: Q01DX001 (ip), vehicle: carboxymethylcellulose (CMC)): 200 % of control

For `O=c1cc(CCl)[nH]nc1CCl`, which T/C (dose: 6.0 mg/kg/injection, schedule: Q04DX003 (ip), vehicle: saline with Tween-80) is on record?
The T/C was 110 % of control.

What about the T/C (dose: 9.5 mg/kg/injection, schedule: Q04DX003 (ip), vehicle: saline with Tween-80) of the same compound?
Its T/C is 110 % of control.

What about the T/C (dose: 14.5 mg/kg/injection, schedule: Q04DX003 (ip), vehicle: saline with Tween-80) of the same compound?
Its T/C is 117 % of control.

And the T/C (dose: 22.0 mg/kg/injection, schedule: Q04DX003 (ip), vehicle: saline with Tween-80)?
Its T/C is 115 % of control and 124 % of control.

And the T/C (dose: 25.0 mg/kg/injection, schedule: Q04DX003 (ip), vehicle: saline with Tween-80)?
Its T/C is 115 % of control.

What about the T/C (dose: 33.0 mg/kg/injection, schedule: Q04DX003 (ip), vehicle: saline with Tween-80) of the same compound?
The T/C was 124 % of control.

And the T/C (dose: 75.0 mg/kg/injection, schedule: Q04DX003 (ip), vehicle: saline with Tween-80)?
Its T/C is 113 % of control.

What about the T/C [1] of the same compound?
The T/C was 111 % of control.

For `O=C(C=C(C(F)(F)F)C(F)(F)F)c1ccc(-c2ccccc2)cc1`, which T/C (dose: 25.0 mg/kg/injection, schedule: Q01DX009 (ip), vehicle: saline with Tween-80) is on record?
Its T/C is 98 % of control.

What about the T/C [2] of the same compound?
The T/C was 98 % of control.

What about the T/C (dose: 50.0 mg/kg/injection, schedule: Q04DX003 (ip), vehicle: saline with Tween-80) of the same compound?
Its T/C is 92 % of control.

What about the T/C [1] of the same compound?
Its T/C is 87 % of control.

What about the T/C [3] of the same compound?
Its T/C is 86 % of control.

With `COc1ccc(C)cc1NC(=O)Oc1ccc2c(C)cc(=O)oc2c1` as the compound, how does the T/C [4] read?
The T/C was 96 % of control.

And the T/C [5]?
Its T/C is 96 % of control.

What does the source list for `CC1C(C(C)(C)C)N1C` (stereo not drawn)?
T/C [6]: 108 % of control; T/C [7]: 110 % of control

Which results are given for `O=c1[nH]cn[nH]1`?
T/C (dose: 100.0 mg/kg/injection, schedule: Q04DX003 (ip), vehicle: saline sonified): 105 % of control; T/C (dose: 200.0 mg/kg/injection, schedule: Q04DX003 (ip), vehicle: saline sonified): 114 % of control; T/C (dose: 400.0 mg/kg/injection, schedule: Q04DX003 (ip), vehicle: saline sonified): 101 % of control

Which results are given for `CC(C)(C)c1ccc(OCCO)cc1`?
T/C (dose: 25.0 mg/kg/injection, schedule: Q01DX009 (ip), vehicle: other): 102 % of control; T/C (dose: 50.0 mg/kg/injection, schedule: Q01DX009 (ip), vehicle: other): 96 % of control; T/C [8]: 95 % of control

How did the T/C [2] turn out when `O=C(OC/C=C/c1ccccc1)c1ccccc1` was run?
The T/C was 97 % of control.

What about the T/C [4] of the same compound?
The T/C was 91 % of control.

And the T/C [5]?
Its T/C is 91 % of control.

For `Oc1ccccc1C=Nc1ccc(I)cc1.Oc1ccccc1C=Nc1ccc(I)cc1.[Co]`, which T/C [1] is on record?
Its T/C is 96 % of control.

And the T/C [3]?
Its T/C is 108 % of control.

And the T/C [9]?
Its T/C is 102 % of control.

What does the source list for `CC[n+]1ccc(Cc2ccc([N+](=O)[O-])cc2)cc1`?
T/C (dose: 25.0 mg/kg/injection, schedule: Q01DX009 (ip), vehicle: Klucel (hydroxypropylcellulose) (HPC)): 102 % of control; T/C [10]: 95 % of control; T/C [11]: 100 % of control

For `CCC(=O)Nc1cccc(OC(=O)NC(C)(C)C)c1`, which T/C [1] is on record?
The T/C was 90 % of control.

And the T/C [3]?
Its T/C is 90 % of control.

And the T/C [9]?
Its T/C is 89 % of control.

How did the T/C [10] turn out when `Cc1ccc(C2(C(=O)O)CCCCC2)cc1` was run?
The T/C was 96 % of control.

What about the T/C [11] of the same compound?
Its T/C is 90 % of control.

What about the T/C [6] of the same compound?
The T/C was 102 % of control.

And the T/C (dose: 200.0 mg/kg/injection, schedule: Q01DX009 (ip), vehicle: Klucel (hydroxypropylcellulose) (HPC))?
The T/C was 88 % of control.

And the T/C [7]?
Its T/C is 98 % of control.

With `COc1ccc(/C=C(\CCCOC(C)=O)[N+](=O)[O-])cc1` as the compound, how does the T/C [12] read?
The T/C was 100 % of control.

What about the T/C [13] of the same compound?
The T/C was 111 % of control.

What about the T/C [14] of the same compound?
The T/C was 113 % of control.

How did the T/C (dose: 3.12 mg/kg/injection, schedule: Q01DX Z (ip), vehicle: saline) turn out when `N/C(=N\[N+](=O)[O-])N(CCCCl)N=O` was run?
Its T/C is 105 % of control.

What about the T/C (dose: 6.25 mg/kg/injection, schedule: Q01DX Z (ip), vehicle: saline) of the same compound?
The T/C was 106 % of control.

What about the T/C (dose: 12.5 mg/kg/injection, schedule: Q01DX Z (ip), vehicle: saline) of the same compound?
Its T/C is 106 % of control.

And the T/C (dose: 18.75 mg/kg/injection, schedule: Q01DX009 (ip), vehicle: saline with Tween-80)?
Its T/C is 107 % of control.

And the T/C (dose: 25.0 mg/kg/injection, schedule: Q01DX Z (ip), vehicle: saline)?
Its T/C is 120 % of control.

And the T/C (dose: 37.5 mg/kg/injection, schedule: Q01DX009 (ip), vehicle: saline with Tween-80)?
Its T/C is 103 % of control.

What about the T/C (dose: 40.0 mg/kg/injection, schedule: Q01DX Z (ip), vehicle: carboxymethylcellulose (CMC)) of the same compound?
Its T/C is 119 % of control.

What about the T/C (dose: 50.0 mg/kg/injection, schedule: Q01DX001 (ip), vehicle: saline) of the same compound?
The T/C was 108 % of control.

What about the T/C (dose: 60.0 mg/kg/injection, schedule: Q01DX Z (ip), vehicle: carboxymethylcellulose (CMC)) of the same compound?
The T/C was 116 % of control.

And the T/C (dose: 75.0 mg/kg/injection, schedule: Q01DX009 (ip), vehicle: saline with Tween-80)?
Its T/C is 123 % of control.

And the T/C (dose: 90.0 mg/kg/injection, schedule: Q01DX Z (ip), vehicle: carboxymethylcellulose (CMC))?
Its T/C is 111 % of control.

What about the T/C [12] of the same compound?
Its T/C is 97 % of control.

What about the T/C (dose: 150.0 mg/kg/injection, schedule: Q01DX009 (ip), vehicle: saline with Tween-80) of the same compound?
The T/C was 104 % of control.

What about the T/C [13] of the same compound?
The T/C was 106 % of control.

With `CN(Cc1ccccc1)C(=O)Nc1ccccc1` as the compound, how does the T/C (dose: 100.0 mg/kg/injection, schedule: Q04DX002 (ip), vehicle: Klucel (hydroxypropylcellulose) (HPC)) read?
The T/C was 98 % of control.

What about the T/C (dose: 200.0 mg/kg/injection, schedule: Q04DX002 (ip), vehicle: Klucel (hydroxypropylcellulose) (HPC)) of the same compound?
Its T/C is 103 % of control.

What about the T/C (dose: 400.0 mg/kg/injection, schedule: Q04DX002 (ip), vehicle: Klucel (hydroxypropylcellulose) (HPC)) of the same compound?
Its T/C is 95 % of control.

`CCCCCCSc1n[nH]c(=O)[nH]c1=O` was tested. Which T/C [12] did it give?
The T/C was 97 % of control.

What about the T/C [13] of the same compound?
The T/C was 95 % of control.

And the T/C [14]?
The T/C was 108 % of control.

With `Cc1n[nH]c(=O)[nH]c1=O` as the compound, how does the T/C (dose: 3.0 mg/kg/injection, schedule: Q01DX009 (ip), vehicle: saline) read?
The T/C was 95 % of control.

What about the T/C (dose: 6.0 mg/kg/injection, schedule: Q01DX009 (ip), vehicle: saline) of the same compound?
Its T/C is 93 % of control.

What about the T/C (dose: 12.0 mg/kg/injection, schedule: Q01DX009 (ip), vehicle: saline) of the same compound?
The T/C was 93 % of control.

And the T/C (dose: 24.0 mg/kg/injection, schedule: Q01DX009 (ip), vehicle: saline)?
Its T/C is 93 % of control.

What about the T/C (dose: 48.0 mg/kg/injection, schedule: Q01DX009 (ip), vehicle: saline) of the same compound?
The T/C was 97 % of control.

And the T/C (dose: 67.5 mg/kg/injection, schedule: Q01DX Z (ip), vehicle: saline)?
The T/C was 96 % of control.

What about the T/C (dose: 125.0 mg/kg/injection, schedule: Q01DX Z (ip), vehicle: saline) of the same compound?
The T/C was 105 % of control.

And the T/C (dose: 200.0 mg/kg/injection, schedule: Q01DX001 (ip), vehicle: acetone)?
Its T/C is 97 % of control.

What about the T/C (dose: 250.0 mg/kg/injection, schedule: Q01DX Z (ip), vehicle: saline) of the same compound?
The T/C was 96 % of control.

And the T/C (dose: 400.0 mg/kg/injection, schedule: Q01DX001 (ip), vehicle: acetone)?
The T/C was 103 % of control.

What about the T/C (dose: 500.0 mg/kg/injection, schedule: Q01DX Z (ip), vehicle: saline) of the same compound?
Its T/C is 105 % of control.

And the T/C (dose: 800.0 mg/kg/injection, schedule: Q01DX001 (ip), vehicle: acetone)?
Its T/C is 98 % of control.

What does the source list for `Cc1cc(-c2ccc(NC(=O)N(C)CCC#N)c(C)c2)ccc1NC(=O)N(C)CCC#N`?
T/C [8]: 88 % of control; T/C (dose: 200.0 mg/kg/injection, schedule: Q01DX009 (ip), vehicle: other): 97 % of control; T/C (dose: 400.0 mg/kg/injection, schedule: Q01DX009 (ip), vehicle: other): 100 % of control
